Laboratory results from US20190048052A1, “ANTI-MICROBIAL PEPTIDES AND COATINGS” (Board of Regents of the University of Nebraska, priority 2016, published 2019).
Residues, ends and D or L forms follow the SMILES beside them.

Assays:
[1] = tested on: S. aureus USA300; test: Inhibition of bacterial attachment (XTT); type: cell-based, Staphylococcus aureus; details: 25 μM
Description: Three types of experiments were conducted to evaluate the anti-biofilm activity of these peptides against S. aureus USA300, which was grown in tryptic soy broth (TSB) media in flat bottom, 96-well, polystyrene microtiter plates (Mishra et al. (2015) RSC Advances 5:59758-59769; Dean et al. (2011) BMC Microbiol., 11:114).
The first experiment measures the ability of the peptide to inhibit bacterial attachment, the initial step for biofilm formation. In short, overnight cultures of S. aureus USA300 were grown in TSB media to an optical density (600 nm) of ˜1.0. 180 μL of this culture was added to each well of the microtiter plates containing 20 μL of 10× peptide solution. The plates are then incubated at 37° C. for 1 hour. Media with bacteria were then pipetted out and chambers were washed with 1×PBS to remove non-adherent cells. The inhibition of biofilms was estimated by XTT [2,3-bis(2-methyloxy-4-nitro-5-sulfophenyl)-2H-tertazolium-5-carboxanilide] assay by following the manufacturer's instructions with modifications. 180 μL of fresh TSB and 20 μL of XTT solution was added to each well and the plates were again incubated for 2 hours at 37° C. Absorbance at 450 nm (only media with XTT containing wells served as the blank) was obtained using a Chromate® microtiter plate reader. […]

[2] = tested on: S. aureus USA300; test: Killing kinetics by colony counting; type: cell-based, Staphylococcus aureus; details: 10^5 CFU S. aureus USA300, colony counting
Description: Killing kinetic experiments were conducted similar to antibacterial assays described above with the following modifications (Wang et al. (2012) Antimicrob. Agents Chemother., 56:845-856). Aliquots of cultures (10^5 CFU) treated with TetraF2W peptides were taken at 15, 30, 50, 90, and 120 minutes, diluted 100-fold, and plated on Luria-Bertani (LB) agar plates. Colonies were counted after overnight incubation at 37° C.

[3] = tested on: S. aureus USA300; type: cell-based, Staphylococcus aureus
Outline: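 USA300 (10^5 CFU/mL) biofilms grown statically in TSB for 24 h at 37° C, washed, then exposed to peptide in fresh TSB for another 24 h at 37° C. Residual biomass read by crystal violet staining at 600 nm; viable cells by 10% XTT, 2 h at 37° C, absorbance 450 nm. Biofilm reduction expressed as percent of untreated wells.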

[4] = tested on: human red blood cells; test: Hemolytic ability (Example 3); type: cell-based; details: concentration that causes 50% hemolysis
Outline: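 Human red blood cells were washed three times in PBS, diluted to 2%, exposed to peptide for one hour at 37 °C and centrifuged. Hemoglobin in the supernatant was read at 545 nm. Percent lysis is relative to 1% Triton X-100 (100%) and PBS (0%).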

[5] = biological target: T1, S. aureus V8 protease (Staphylococcus aureus, UniProt P0C1U8); type: in vitro ADME; details: peptide:protease 40:1, 24 hours, 37° C.
T1 construct: purchased Sigma or Fisher
T1 sequence (P0C1U8 69-336): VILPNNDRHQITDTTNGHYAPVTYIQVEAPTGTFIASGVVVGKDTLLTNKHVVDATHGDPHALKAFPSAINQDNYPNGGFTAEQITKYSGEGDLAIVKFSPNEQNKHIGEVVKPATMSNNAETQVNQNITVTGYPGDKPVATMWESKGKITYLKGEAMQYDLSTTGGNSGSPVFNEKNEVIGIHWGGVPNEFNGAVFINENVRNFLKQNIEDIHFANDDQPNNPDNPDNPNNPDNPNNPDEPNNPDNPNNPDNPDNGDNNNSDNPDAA
Description: When degraded, no peptide band could be detected on a 5% stacking/18% resolving tricine gel after 2-4 hours incubation at 37° C. Briefly, a solution (100 μL) containing 250 μM peptide and 6.25 μM protease (Sigma or Fisher) in 10 mM PBS buffer (pH 8) was incubated at 37° C. (peptide/protease molar ratio, 40:1). Aliquots (10 μL) of the reaction solutions were taken at 0, 6, and 24 hours and immediately mixed with 10 μL of 2× SDS loading buffer followed by boiling for 5 minutes to stop the reaction. […] After electrophoresis, the gel was stained by Brilliant Blue R-250 (Fisher) and destained to view the peptide bands.

[6] = tested on: S. aureus USA300; test: Live cell penetration experiment (FITC, confocal); type: cell-based, Staphylococcus aureus; details: peptide and FITC 12.5 μM
Description: The entrance of a fluorescent dye into live bacterial cells was followed by confocal microscopy (Mishra et al. (2015) RSC Advances 5:59758-59769). In short, S. aureus USA300 was grown to the exponential phase from the overnight culture. The cells were then washed twice with fresh 1×PBS (pH 7.2) and the final cell density was adjusted to 1×10^8 CFU/mL. 1500 μL of the culture was added to the chambers of cuvettes (borosilicate cover glass systems) with equimolar concentrations of TetraF2W-RK and fluorescein isothiocyanate FITC (12.5 μM). The samples were examined with a confocal laser scanning microscope (Zeiss 710) with a series of live time pictures taken at every 5 seconds for 5 minutes and the data were processed using Zen 2010 software.

Compound | reduction of adherence of bacterial cells [1] | time in which all the bacteria were killed [2] | killing in preformed biofilms (XTT) ([3]; 6.2 μM) | killing in preformed biofilms (XTT), words ([3]; 12.5 μM) | HL50 [4] | stability to S. aureus V8 protease [5] | time to entry of FITC into bacteria after peptide treatment [6]
CC[C@H](C)[C@H](NC(=O)[C@H](CCCNC(=N)N)NC(=O)[C@H](CCCNC(=N)N)NC(=O)[C@H](CC(C)C)NC(=O)[C@H](Cc1c[nH]c2ccccc12)NC(=O)[C@H](Cc1c[nH]c2ccccc12)NC(=O)[C@@H](N)Cc1c[nH]c2ccccc12)C(=O)N[C@@H](Cc1c[nH]c2ccccc12)C(N)=O [TetraF2W-RR, WWWLRRIW] (H-WWWLRRIW-NH2; N-terminus assumed) | 83% | 90 min | only the WT was active | nearly all S. aureus USA300 was eliminated | 35 µM |  | 
CC[C@H](C)[C@H](NC(=O)[C@H](CCCCN)NC(=O)[C@H](CCCNC(=N)N)NC(=O)[C@H](CC(C)C)NC(=O)[C@H](Cc1c[nH]c2ccccc12)NC(=O)[C@H](Cc1c[nH]c2ccccc12)NC(=O)[C@@H](N)Cc1c[nH]c2ccccc12)C(=O)N[C@@H](Cc1c[nH]c2ccccc12)C(N)=O [TetraF2W-RK, WWWLRKIW] (H-WWWLRKIW-NH2; N-terminus assumed) |  |  |  |  |  | not cut | 30 s
